From ChEMBL document CHEMBL1821724, “Synthesis and in vitro evaluation of derivatives of the β₁-adrenergic receptor antagonist HX-CH 44” (Bioorg Med Chem Lett, 2011)

Columns and labels:
[1] = biological target: Beta-1 adrenergic receptor (Homo sapiens, UniProt P08588); test: Displacement of [125I]-Iodopindolol from beta1-adrenergic receptor after 1.5 hrs by liquid scintillation counting
[2] = biological target: Beta-2 adrenergic receptor (Homo sapiens, UniProt P07550); test: Displacement of [125I]-Iodopindolol from beta2-adrenergic receptor after 1.5 hrs by liquid scintillation counting
[3] = biological target: T1, 5-hydroxytryptamine receptor 1A (Homo sapiens, UniProt P08908); test: Displacement of [3H]-8-OH-DPAT from 5HT1A receptor after 1.5 hrs by liquid scintillation counting
T1 sequence (P08908 whole entry): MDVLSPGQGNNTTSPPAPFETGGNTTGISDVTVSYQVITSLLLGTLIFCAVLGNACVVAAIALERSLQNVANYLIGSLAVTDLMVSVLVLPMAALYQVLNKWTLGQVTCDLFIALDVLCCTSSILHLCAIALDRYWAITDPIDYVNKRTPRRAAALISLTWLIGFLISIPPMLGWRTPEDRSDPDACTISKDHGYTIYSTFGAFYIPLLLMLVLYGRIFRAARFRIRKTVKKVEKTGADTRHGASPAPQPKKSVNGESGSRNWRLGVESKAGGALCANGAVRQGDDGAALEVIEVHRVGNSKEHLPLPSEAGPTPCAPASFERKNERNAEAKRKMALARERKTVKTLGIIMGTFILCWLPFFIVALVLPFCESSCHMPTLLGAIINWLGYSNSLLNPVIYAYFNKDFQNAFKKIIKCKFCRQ

[4] = biological target: Beta-1 adrenergic receptor (Rattus norvegicus, UniProt P18090); test: Displacement of [3H]-CGP12177 from beta1-adrenergic receptor in rat heart membranes; format: cell membranes, Membrane
Beta-1 adrenergic receptor (Rattus norvegicus, UniProt P18090), sequence (P18090 whole entry): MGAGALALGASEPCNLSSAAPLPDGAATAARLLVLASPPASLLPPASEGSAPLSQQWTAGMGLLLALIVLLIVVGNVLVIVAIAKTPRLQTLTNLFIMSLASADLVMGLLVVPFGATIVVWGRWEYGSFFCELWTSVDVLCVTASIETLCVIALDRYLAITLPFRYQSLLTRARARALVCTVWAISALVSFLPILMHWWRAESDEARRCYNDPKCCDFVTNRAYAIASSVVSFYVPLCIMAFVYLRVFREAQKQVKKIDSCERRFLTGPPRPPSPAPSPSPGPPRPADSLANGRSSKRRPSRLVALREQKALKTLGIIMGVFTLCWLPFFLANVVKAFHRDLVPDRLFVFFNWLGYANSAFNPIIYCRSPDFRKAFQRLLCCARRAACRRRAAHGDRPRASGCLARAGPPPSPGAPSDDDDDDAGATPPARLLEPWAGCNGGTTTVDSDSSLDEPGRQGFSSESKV

Beta-1 adrenergic receptor (Homo sapiens, UniProt P08588), sequence (P08588 whole entry): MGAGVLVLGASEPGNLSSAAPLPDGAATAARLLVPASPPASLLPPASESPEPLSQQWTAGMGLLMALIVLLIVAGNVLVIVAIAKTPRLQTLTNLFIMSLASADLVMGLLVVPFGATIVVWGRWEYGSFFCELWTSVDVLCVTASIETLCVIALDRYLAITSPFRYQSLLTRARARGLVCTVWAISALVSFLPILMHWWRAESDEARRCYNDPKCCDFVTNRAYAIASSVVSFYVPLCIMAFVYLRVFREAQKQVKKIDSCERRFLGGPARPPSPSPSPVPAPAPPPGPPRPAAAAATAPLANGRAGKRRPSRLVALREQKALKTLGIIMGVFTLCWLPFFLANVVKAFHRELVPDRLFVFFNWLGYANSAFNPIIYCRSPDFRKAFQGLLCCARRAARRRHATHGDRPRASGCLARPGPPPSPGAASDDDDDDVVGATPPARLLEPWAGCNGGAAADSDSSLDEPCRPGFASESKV
Beta-2 adrenergic receptor, sequence (P07550 whole entry): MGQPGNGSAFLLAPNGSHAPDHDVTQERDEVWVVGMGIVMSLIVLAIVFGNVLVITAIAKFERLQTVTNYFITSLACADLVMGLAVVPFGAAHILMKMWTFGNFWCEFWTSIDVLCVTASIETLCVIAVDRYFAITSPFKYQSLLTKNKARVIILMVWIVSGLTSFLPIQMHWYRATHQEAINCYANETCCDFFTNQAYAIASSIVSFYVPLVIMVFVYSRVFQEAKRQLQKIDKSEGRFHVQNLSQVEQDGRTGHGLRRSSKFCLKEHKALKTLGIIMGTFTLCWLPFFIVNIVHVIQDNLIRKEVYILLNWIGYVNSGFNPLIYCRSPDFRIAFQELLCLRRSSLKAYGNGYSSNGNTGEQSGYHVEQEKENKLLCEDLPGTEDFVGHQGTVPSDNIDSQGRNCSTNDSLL

Row | Ki [1] [µM] | Ki [2] [µM] | Ki [3] [µM] | Ki [4] [µM] | SMILES
1 | 3 | > 10 | > 10 |  | COc1ccc2nc(-c3ccc(OC[C@@H](O)CNC(C)CF)cc3)n(C)c(=O)c2c1 (stereo not given in full)
2 | 2.3 | > 10 | > 10 |  | COc1ccc2nc(-c3ccc(OCC(O)CNC(C)CF)cc3)n(C)c(=O)c2c1 (mixture of isomers)
3 | 2.4 | 7.7 | 5.5 |  | COc1ccc2nc(-c3ccc(OCC(O)CNC(C)C)cc3)n(C)c(=O)c2c1 (racemic)
4 |  |  |  | 0.077 | COc1ccc2nc(-c3ccc(OCC(O)CNC(C)(C)C)cc3)n([11CH3])c(=O)c2c1 (racemic)
